Experimental data from patent publication US6262073A, “Pharmaceutical methods of use of 5-substituted and 5,5 disubstituted-3,4-dihydroxy-2(5H)-furanones” (Oxis International Inc., priority 2000, dated 2001).

Columns and labels:
[1] = target: T1, Cyclooxygenase-2 (prostaglandin H synthetase-2) from sheep placenta (Ovis aries, UniProt P79208); assay: Cyclooxygenase-2 screen (COX-2); format: biochemical; settings: read-out: COX-2 percent inhibition
T1 construct: cyclooxygenase-2 from sheep placenta; from tissue; host or cells: sheep placenta
T1 sequence (P79208 17-603): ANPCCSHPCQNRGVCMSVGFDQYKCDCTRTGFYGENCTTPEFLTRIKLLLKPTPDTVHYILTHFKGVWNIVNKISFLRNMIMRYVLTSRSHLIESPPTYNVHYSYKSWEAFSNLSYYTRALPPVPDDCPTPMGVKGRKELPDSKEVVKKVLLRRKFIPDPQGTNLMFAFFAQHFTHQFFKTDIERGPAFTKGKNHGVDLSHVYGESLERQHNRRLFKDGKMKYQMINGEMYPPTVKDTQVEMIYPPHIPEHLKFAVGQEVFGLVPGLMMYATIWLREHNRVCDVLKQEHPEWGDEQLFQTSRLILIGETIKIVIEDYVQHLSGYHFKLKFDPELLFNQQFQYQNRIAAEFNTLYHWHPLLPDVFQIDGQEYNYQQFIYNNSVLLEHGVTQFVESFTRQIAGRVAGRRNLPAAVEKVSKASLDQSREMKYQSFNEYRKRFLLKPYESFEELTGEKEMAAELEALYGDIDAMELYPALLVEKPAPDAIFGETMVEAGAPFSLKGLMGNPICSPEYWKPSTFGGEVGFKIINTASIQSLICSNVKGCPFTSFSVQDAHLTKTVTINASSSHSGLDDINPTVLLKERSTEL
Procedure: (§1) The compounds of the invention were screened for their anti-inflammatory activity using a series of in vitro tests the details of which are given below. The activity of various compounds against 5-lipoxygenase, cycloxygenase-1, cycloxygenase-2 and lipid peroxidase was evaluated. Results of the screening procedures are included in TABLE I, and the activity against 5-lipoxygenase at a test concentration of 1 μM in Table II.
Cyclooxygenase-2, also known as prostaglandin H synthetase-2, catalyzes the rate- limiting step in the synthesis of inflammatory prostaglandins. In this reaction cyclooxygenase-2 catalyzes the oxygenation of unesterified precursors to form cyclic endoperoxide derivatives, including prostaglandin H. Briefly, cyclooxygenase-2 from sheep placenta, 14 μg/assay tube, is incubated with arachidonic acid (500 μM) for 1.5 minutes at 27° C. in the absence or presence of test compounds according to the methods of A. T. Evans, et al., Biochem Pharm. […] Res. Comm. […] Compounds are screened at 300 μM.

[2] = tested on: Nuclear Factor-kappa B (NF-κB); assay: NF-κB lacZ (κB-Z) reporter assay in transfected Jurkat cells stimulated with A23187 and PMA; format: cell-based, human; settings: for inhibition at 10 µM: Homo sapiens, read-out: NF-κB percent inhibition
Procedure: The human T lymphoid cell line Jurkat was transfected with a response element lacZ reporter in which transcription of the β-galactosidase gene is directed by the binding site for the NF-κB transcription factor. […] At the end of the incubation, the cells are spun down and resuspended in the buffer and FDG (fluorescein di-β-D-galactopyranoside) solution. The covered plates are further incubated in the dark for 16 hours at 25° C. […] Compounds were screened at 10 μM.

[3] = target: T2, 5-Lipoxygenase (crude enzyme preparation from rat basophilic leukemia cells, RBL-1) (Rattus norvegicus, UniProt P12527); assay: 5-Lipoxygenase screen (5-LO), 5-HETE by RIA; format: biochemical; settings: for inhibition at 30 µM: read-out: 5-LO percent inhibition; for inhibition at 1 µM: read-out: Percent inhibition of 5-LO
T2 construct: crude enzyme preparation from rat basophilic leukemia cells (RBL-1); endogenous in cells; host or cells: rat basophilic leukemia cells (RBL-1)
T2 sequence (P12527 1-673): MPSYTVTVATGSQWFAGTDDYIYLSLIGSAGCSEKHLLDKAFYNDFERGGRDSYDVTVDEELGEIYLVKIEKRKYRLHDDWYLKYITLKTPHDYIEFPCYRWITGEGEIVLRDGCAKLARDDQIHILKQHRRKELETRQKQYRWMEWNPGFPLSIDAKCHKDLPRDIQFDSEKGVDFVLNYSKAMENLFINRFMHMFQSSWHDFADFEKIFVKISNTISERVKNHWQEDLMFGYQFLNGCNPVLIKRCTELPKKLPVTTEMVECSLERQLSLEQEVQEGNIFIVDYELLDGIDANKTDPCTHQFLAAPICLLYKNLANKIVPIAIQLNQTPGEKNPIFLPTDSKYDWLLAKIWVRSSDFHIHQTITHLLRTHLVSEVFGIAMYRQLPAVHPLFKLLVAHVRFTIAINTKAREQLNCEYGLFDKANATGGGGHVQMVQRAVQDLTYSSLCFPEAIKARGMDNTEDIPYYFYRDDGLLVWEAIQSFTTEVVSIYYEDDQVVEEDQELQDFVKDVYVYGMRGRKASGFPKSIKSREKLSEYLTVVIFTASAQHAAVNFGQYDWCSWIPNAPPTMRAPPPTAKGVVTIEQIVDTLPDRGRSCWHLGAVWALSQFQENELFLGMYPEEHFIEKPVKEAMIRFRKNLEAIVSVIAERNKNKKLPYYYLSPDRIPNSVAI
Procedure: as §1
5-Lipoxygenase catalyzes the oxidative metabolism of arachidonic acid to […] (5-HETE), the initial reaction leading to the formation of the leukotrienes. Briefly, the testing procedure utilizes a crude enzyme preparation from rat basophilic leukemia cells (RBL-1) according to the methods of T. Shimuzu et al. Pro. […] Test compounds are pre-incubated with the enzyme preparation for 5 minutes at room temperature and the reaction is initiated by the addition of arachidonic acid. Following an 8 minute incubation at room temperature, the reaction is terminated by the addition of citric acid and concentrations of 5-HETE are determined by RIA. Compounds are screened at 30 μM.

[4] = tested on: Lipid peroxidation (rat liver microsomes); assay: Lipid peroxidation screen (LPO), CCl4-induced, liver microsomes; format: biochemical; settings: 300 μM
Procedure: as §1
Lipid peroxidation is a consequence of various stimuli, including reactive free radicals. Polyunsaturated fatty acids associated with plasma membranes are degraded due to enzymatic induction by reactive agents such as CCl4, leading to cellular damage. Briefly, microsomes are prepared from rat livers and the protein concentration is determined according to the method of D. Mansuy et al., Biochem. Biophys. Res. Comm. 135:1015-1021(1986). A reaction mixture consisting of 2 mg of the microsomal preparation, an NADPH generating system, 20 mM CCl4 and test compound are incubated for 12 minutes at 37° C. The reaction is terminated by the addition of a mixture of thiobarbituric acid and trichloroacetic acid. The absorbance is read at 535 nm and is proportional to the concentration of malondialdehyde. Compounds are screened at 300 μM.

[5] = target: T3, Cyclooxygenase-1 (cyclooxygenase from ram seminal vesicles) (Ovis aries, UniProt P05979); assay: Cyclooxygenase-1 screen (COX-1); format: biochemical; settings: 300 μM
T3 construct: cyclooxygenase from ram seminal vesicles; from tissue; host or cells: ram seminal vesicles
T3 sequence (P05979 25-600): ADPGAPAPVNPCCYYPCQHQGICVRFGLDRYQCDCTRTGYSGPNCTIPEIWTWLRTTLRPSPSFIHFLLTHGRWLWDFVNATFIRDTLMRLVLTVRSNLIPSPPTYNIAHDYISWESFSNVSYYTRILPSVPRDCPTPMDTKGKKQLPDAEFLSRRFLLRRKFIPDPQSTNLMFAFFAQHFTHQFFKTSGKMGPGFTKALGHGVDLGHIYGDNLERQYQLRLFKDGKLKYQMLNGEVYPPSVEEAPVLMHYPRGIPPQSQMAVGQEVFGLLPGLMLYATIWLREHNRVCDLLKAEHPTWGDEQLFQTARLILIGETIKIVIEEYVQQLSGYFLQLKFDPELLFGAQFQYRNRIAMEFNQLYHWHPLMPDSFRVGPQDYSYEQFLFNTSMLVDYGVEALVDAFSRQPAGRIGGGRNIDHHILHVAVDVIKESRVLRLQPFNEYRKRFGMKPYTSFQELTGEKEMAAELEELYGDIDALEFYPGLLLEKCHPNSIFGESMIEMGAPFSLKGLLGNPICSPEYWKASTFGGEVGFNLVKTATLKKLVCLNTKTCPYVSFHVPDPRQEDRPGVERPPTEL
Procedure: as §1
Cyclooxygenase-1 is involved in the formation of prostaglandins and thromboxane via the oxidative metabolism of arachidonic acid. Briefly, cyclooxygenase from ram seminal vesicles is incubated with arachidonic acid (100 μm) for 2 minutes at 37° C. in the presence or absence of test compounds according to the methods of A. T. Evans et al., Biochem. Pharm. 36:2035-2037(1987) and R. Boopathy et al., Biochem J. 239:371-377 (1968). The assay is terminated by the addition of trichioroacetic acid and cyclooxygenase activity is determined by reading the absorbance at 530 nm. […]

[6] = 10 μM, κB-Z Jurkat cells, A23187 and PMA (Table III)

Compound	inhibition at 300 µM [1]	inhibition at 10 µM [2, 6]	inhibition at 30 µM [3]	inhibition at 1 µM ([3]; test conc. 1 μM (Table II))	LPO percent inhibition [4]	COX-1 percent inhibition [5]	NF-κB percent inhibition [2, 6]	IC50 ([2]; Table III)	5-LO percent inhibition ([3]; Table I cell printed "@1" instead of the 30 μM of the head)	IC50 ([3]; Table II)	Percent inhibition of 5-LO ([3]; test conc. 1 μM (Table II))
CC1(c2ccc(-c3ccccc3)cc2)OC(=O)C(O)=C1O (racemic) [Example 2, 5-[(1,1'-Biphenyl)-4-yl]-3,4-dihydroxy-5-methyl-2(5H)-furanone]	22%	90%	107%	15%	78%	33%					
CCCC1(c2ccc(-c3ccccc3)cc2)OC(=O)C(O)=C1O (stereo not drawn) [Example 5, 5-[(1,1'-Biphenyl)-4-yl]-3,4-dihydroxy-5-propyl-2(5H)-furanone]	22%	68%	99%	68%	70%	13%					
CC(C)CC1(c2ccc(-c3ccccc3)cc2)OC(=O)C(O)=C1O (stereo not drawn) [Example 6, 5-[(1,1'-Biphenyl)-4-yl]-3,4-dihydroxy-5-(2-methylpropyl)-2(5H)-furanone]	46%	59%	96%	70%	82%	67%					
O=C1OC(c2ccccc2)(c2ccc(-c3ccccc3)cc2)C(O)=C1O (stereo not drawn) [Example 7, 5-[(1,1'-Biphenyl)-4-yl]-3,4-dihydroxy-5-phenyl-2(5H)-furanone]	34%	21%	102%	61%	73%	52%					
Cc1ccccc1C#CCCC1OC(=O)C(O)=C1O (stereo not drawn) [Example 28, 3,4-Dihydroxy-5-[(4-(2-methyl)phenyl)-3-butynyl]-2(5H)-furanone]	15%		58%		61%	4%					
CCC/C=C\Cc1ccccc1C#CCCC1OC(=O)C(O)=C1O (stereo not drawn) [Example 29]	26%		81%	56%	72%	55%					
O=C1OC(CCC#Cc2ccccc2CSc2ccccc2)C(O)=C1O (stereo not drawn) [Example 30, 3,4-Dihydroxy-5-[(4-(2-(phenylthio)methyl)phenyl)-3-butynyl]-2(5H)-furanone]	16%		100%	70%	62%	26%					
CCCCNS(=O)(=O)c1ccccc1C#CCCC1OC(=O)C(O)=C1O (stereo not drawn) [Example 31]	23%		81%		73%	37%					
CCCSCc1ccccc1C#CCCC1OC(=O)C(O)=C1O (stereo not drawn) [Example 33, 3,4-Dihydroxy-5-[(4-(2-(propylthio)methyl)phenyl)-3-butynyl]-2(5H)-furanone]	20%		84%		74%	37%					
CCCCCSCc1ccccc1C#CCCC1OC(=O)C(O)=C1O (stereo not drawn) [Example 34, 3,4-Dihydroxy-5-[(4-(2-(1-pentylthio)methyl)phenyl)-3-butynyl]-2(5H)-furanone]	43%		92%		63%	67%					
CCCS(=O)(=O)Cc1ccccc1C#CCCC1OC(=O)C(O)=C1O (stereo not drawn) [Example 35, 3,4-Dihydroxy-5-[(4-(2-(propylsulfonyl)methyl)phenyl)-3-butynyl]-2(5H)-furanone]	13%		30%		60%	25%					
O=C1OC(CCC#Cc2cc(Cc3ccc(F)cc3)cs2)C(O)=C1O (stereo not drawn) [Example 36, 3,4-Dihydroxy-5-[2-(4-(4-fluorophenylmethyl)thiophene)-(3-butynyl)]-2(5H)-furanone]							61%	6 µM	85%	0.16 µM	91%
CCC/C=C\Cc1ccccc1/C=C\CCC1OC(=O)C(O)=C1O (stereo not drawn) [Example 40]	25%		99%		65%	38%					
